The source of these data is EPA's ToxValDB 9.5 (doi:10.2903/j.efsa.2008.128r).

The subject of one series is Anas platyrhynchos. The settings on record: oral, mortality.
The subject of the next series is Apis mellifera. The settings on record: acute; duration: 48 hours; oral; unspecified; mortality.
For the next series, the system named is Canidae. The settings on record: subchronic; duration: 90 days; oral; Dog Other; organ weight.
A further series concerns Colinus virginianus. The note with it: for LD50: acute, oral, mortality.
In a further series the test system is Daphnia magna. The settings on record: chronic/long-term; duration: 21 days.
For another series, the system named is Mus musculus. The note with it: acute; oral; mortality.
A further series concerns Typhlodromus pyri. Description: LR50; higher = less toxic. The settings on record: not reported; mortality.

By NOAEL is commonly meant the highest dose or exposure tested at which no adverse effect was seen. In the case of `CC(C)N1C(=O)N(c2ccccc2)CSC1=NC(C)(C)C` [Buprofezin], the LD50 in the series with Anas platyrhynchos (acute, unspecified) was more than 2000 mg/kg-day; in the series with Apis mellifera, more than 164 µg/piece; with Colinus virginianus (diet) it was more than 1310 mg/kg-day; in the series on Colinus virginianus it was more than 2000 mg/kg-day; in the series with Mus musculus, more than 2000 mg/kg-day; in the series on Rattus norvegicus (acute, oral, mortality) it was more than 2000 mg/kg-day. In addition, the LC50 in the series on Anas platyrhynchos (short-term, feed) is more than 1310 mg/kg-day; with Oncorhynchus mykiss (acute, duration: 96 hours, mortality) it was more than 0.33 µg/mL; in the series on Tagia sp. (acute, duration: 14 days, mortality), more than 1000 mg/kg. For the same compound, the NOAEL was 10 mg/kg-day in the series with Canidae; 0.9 mg/kg-day in the series with Rattus norvegicus (chronic, duration: 2 years, oral, diet, M/F, organ weight); 50 mg/kg-day in the series on Rattus norvegicus (developmental, development); 66 mg/kg-day in the series with Rattus norvegicus (reproduction developmental, body weight). Besides, the NOEC with Colinus virginianus (developmental, development) was determined as 48 mg/kg-day; in the series with Colinus virginianus (reproduction developmental, reproduction), 198 mg/kg-day; in the series with Daphnia magna it was 0.08 mg/L; in the series with Oncorhynchus mykiss (chronic/long-term, growth) it was 0.052 mg/L; with Tagia sp. (chronic/long-term, duration: 56 days, reproduction), 500 mg/kg. Besides, the LR50 with Typhlodromus pyri was more than 3000 g/ha.
